The values that follow come from ChEMBL document CHEMBL3232706, “SAR-studies on the importance of aromatic ring topologies in search for selective 5-HT(7) receptor ligands among phenylpiperazine hydantoin derivatives” (Eur J Med Chem, 2014).

Usually Ki stands for the dissociation constant of the complex between target and ligand, obtained from inhibition or displacement. One may read the inhibition as the change of the read-out against control, counted positive when it falls.

Assay [1] addresses T1, 5-hydroxytryptamine receptor 1A (Homo sapiens, UniProt P08908).
T1 sequence (P08908 whole entry): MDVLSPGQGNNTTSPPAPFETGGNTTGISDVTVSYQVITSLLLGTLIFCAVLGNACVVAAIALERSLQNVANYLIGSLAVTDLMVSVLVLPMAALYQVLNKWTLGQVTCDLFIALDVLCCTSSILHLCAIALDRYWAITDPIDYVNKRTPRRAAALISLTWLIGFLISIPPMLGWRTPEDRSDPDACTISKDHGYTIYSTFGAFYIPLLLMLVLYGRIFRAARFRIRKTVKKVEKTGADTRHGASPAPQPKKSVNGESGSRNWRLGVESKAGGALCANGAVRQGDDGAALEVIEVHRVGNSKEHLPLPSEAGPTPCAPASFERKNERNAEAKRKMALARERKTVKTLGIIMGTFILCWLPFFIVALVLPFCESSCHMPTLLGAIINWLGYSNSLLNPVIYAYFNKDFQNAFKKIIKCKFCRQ
Nature of the assay: Displacement of [3H]-8-OH-DPAT from human recombinant 5-HT1A receptor expressed in HEK293 cell membrane after 1 hr by Microbeta scintillation counting analysis. It is filed as cell membranes. (In a radioligand displacement assay an active substance lowers the binding of a labelled ligand.)

Assay [2] concerns the target 5-hydroxytryptamine receptor 6 (Homo sapiens, UniProt P50406). The assay can be described thus: Displacement of [3H]-LSD from human recombinant 5-HT6 receptor expressed in HEK293 cell membrane after 1 hr by Microbeta scintillation counting analysis. It counts as cell membranes.
Assay [3] deals with 5-hydroxytryptamine receptor 7 (Homo sapiens, UniProt P34969). The assay can be described thus: Displacement of [3H]-5-CT from human recombinant 5-HT7 receptor expressed in HEK293 cell membrane after 1 hr by Microbeta scintillation counting analysis. It is filed as cell membranes.
Assay [4] has as its target T2, Adrenergic receptor alpha-1 (Rattus norvegicus, UniProt P15823+P23944+P43140).
T2 sequence (P15823 whole entry): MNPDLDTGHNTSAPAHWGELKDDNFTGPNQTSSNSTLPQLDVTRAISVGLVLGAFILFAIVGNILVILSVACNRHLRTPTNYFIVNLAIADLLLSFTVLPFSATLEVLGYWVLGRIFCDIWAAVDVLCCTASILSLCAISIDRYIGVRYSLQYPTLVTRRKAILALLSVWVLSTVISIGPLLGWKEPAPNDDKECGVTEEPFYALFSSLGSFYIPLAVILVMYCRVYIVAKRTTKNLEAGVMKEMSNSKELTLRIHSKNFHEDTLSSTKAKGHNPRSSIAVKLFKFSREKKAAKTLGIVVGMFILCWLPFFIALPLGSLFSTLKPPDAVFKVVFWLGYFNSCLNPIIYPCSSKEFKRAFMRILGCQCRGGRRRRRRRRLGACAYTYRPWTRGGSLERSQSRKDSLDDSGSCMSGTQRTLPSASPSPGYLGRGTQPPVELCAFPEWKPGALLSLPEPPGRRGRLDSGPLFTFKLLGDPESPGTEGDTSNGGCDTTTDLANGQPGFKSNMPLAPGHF
T2 sequence (P23944 whole entry): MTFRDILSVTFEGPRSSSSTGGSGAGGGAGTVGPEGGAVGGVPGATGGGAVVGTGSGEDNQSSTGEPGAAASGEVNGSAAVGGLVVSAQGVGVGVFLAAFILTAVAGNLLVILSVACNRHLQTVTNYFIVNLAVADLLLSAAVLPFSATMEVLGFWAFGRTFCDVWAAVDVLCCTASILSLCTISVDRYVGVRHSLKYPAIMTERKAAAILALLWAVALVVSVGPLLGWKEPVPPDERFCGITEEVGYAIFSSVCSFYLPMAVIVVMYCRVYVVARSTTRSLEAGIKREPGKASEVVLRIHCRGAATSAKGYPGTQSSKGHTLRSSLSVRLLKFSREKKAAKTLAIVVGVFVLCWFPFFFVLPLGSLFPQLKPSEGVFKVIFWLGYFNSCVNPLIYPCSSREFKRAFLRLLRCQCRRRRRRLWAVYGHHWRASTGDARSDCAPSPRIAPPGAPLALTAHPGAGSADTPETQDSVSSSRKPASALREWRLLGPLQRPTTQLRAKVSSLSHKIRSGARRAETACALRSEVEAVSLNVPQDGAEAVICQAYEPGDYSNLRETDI
T2 sequence (P43140 whole entry): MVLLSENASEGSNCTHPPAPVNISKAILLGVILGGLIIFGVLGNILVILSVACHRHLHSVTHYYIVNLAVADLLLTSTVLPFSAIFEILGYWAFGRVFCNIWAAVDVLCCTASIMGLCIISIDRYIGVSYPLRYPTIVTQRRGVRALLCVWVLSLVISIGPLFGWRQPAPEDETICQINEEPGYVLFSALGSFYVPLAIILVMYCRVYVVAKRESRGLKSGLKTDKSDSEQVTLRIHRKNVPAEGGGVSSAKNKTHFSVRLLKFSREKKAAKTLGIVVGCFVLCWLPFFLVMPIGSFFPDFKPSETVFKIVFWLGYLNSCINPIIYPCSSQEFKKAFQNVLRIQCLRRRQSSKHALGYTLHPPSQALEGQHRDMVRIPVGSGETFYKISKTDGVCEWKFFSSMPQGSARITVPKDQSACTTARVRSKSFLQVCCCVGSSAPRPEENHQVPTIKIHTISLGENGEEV
Nature of the assay: Displacement of [3H]prazosin from alpha1 adrenergic receptor in rat cerebral cortex after 30 mins by Microbeta scintillation counting analysis. It counts as tissue-based.

The target in assay [5] is T3, 5-hydroxytryptamine receptor 3A (Homo sapiens) (UniProt P46098).
T3 sequence (whole entry): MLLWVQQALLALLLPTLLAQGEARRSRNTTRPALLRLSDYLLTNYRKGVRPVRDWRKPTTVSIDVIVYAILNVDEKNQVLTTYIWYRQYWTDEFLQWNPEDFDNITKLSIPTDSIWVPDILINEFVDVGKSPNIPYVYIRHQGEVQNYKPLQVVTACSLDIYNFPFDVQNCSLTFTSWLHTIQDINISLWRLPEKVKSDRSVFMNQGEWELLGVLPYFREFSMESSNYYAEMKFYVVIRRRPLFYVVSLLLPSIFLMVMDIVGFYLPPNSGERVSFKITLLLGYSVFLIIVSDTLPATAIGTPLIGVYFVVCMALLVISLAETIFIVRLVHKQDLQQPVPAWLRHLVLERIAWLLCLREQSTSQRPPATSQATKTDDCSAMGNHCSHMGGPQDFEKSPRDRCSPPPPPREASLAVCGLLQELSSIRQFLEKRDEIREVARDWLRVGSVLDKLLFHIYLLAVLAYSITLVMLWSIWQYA
The assay can be described thus: Reversible inhibition of human 5-HT3A expressed in xenopus oocytes assessed as decrease in 5-HT-activated chloride current at […] by two-electrode voltage clamp technique. It counts as cell-based. On the technique in general: Two-electrode voltage clamp holds a large cell at a set potential and records current.

Assay [6] deals with HEK293. The assay can be described thus: Selectivity ratio of Ki for alpha1 adrenergic receptor in rat cerebral cortex to Ki for human recombinant 5-HT7 receptor expressed in HEK293 cell membrane. It is filed as cell-based.
For assay [7], the system named is HEK293. The assay can be described thus: Selectivity ratio of Ki for human recombinant 5-HT1A receptor expressed in HEK293 cell membrane to Ki for human recombinant 5-HT7 receptor expressed in HEK293 cell membrane. It is filed as cell-based.

Sequence of 5-hydroxytryptamine receptor 7 (P34969 whole entry): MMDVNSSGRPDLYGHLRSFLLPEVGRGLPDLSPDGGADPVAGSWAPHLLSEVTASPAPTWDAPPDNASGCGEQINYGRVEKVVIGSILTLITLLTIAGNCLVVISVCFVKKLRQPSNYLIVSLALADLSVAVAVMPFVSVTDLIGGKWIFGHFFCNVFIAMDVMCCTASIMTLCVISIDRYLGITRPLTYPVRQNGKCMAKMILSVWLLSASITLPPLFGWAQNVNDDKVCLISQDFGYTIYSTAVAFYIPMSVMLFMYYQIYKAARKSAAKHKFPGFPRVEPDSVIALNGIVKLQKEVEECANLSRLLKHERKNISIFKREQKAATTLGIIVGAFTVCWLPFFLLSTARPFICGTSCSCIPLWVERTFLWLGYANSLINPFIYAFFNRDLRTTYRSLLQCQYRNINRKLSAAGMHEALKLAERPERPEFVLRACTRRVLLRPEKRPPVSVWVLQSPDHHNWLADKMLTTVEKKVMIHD
Sequence of 5-hydroxytryptamine receptor 6 (P50406 whole entry): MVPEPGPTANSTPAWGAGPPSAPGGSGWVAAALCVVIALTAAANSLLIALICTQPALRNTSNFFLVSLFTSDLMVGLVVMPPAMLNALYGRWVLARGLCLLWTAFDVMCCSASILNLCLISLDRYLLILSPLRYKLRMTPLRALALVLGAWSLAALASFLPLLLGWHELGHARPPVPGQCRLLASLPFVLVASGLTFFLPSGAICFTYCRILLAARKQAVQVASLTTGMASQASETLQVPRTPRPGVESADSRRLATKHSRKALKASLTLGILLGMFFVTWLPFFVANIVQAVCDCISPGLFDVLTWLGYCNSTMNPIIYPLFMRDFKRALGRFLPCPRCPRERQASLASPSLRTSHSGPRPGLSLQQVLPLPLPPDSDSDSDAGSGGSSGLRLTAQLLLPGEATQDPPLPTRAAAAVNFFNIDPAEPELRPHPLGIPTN

For `CN1C(=O)N(CC(O)CN2CCN(c3ccccc3)CC2)C(c2ccccc2)(c2ccccc2)C1=O` (configuration not stated), the values for the Ki in assay [1], in assay [2] and in assay [3] were 0.324 µM, 20.4 µM and 0.353 µM, respectively.
With `COc1cccc(N2CCN(CCCCCN3C(=O)N(Cc4ccccc4)C(=O)C3(C)C)CC2)c1.Cl`, the Ki in assay [4] was found to be 0.0972 µM; in assay [1], 0.045 µM; in assay [2] it was 2.93 µM; in assay [3], 0.122 µM.
For `COc1ccccc1N1CCN(CC(O)CN2C(=O)NC(C)(c3ccc(F)cc3)C2=O)CC1.Cl` (configuration not stated), the Ki came to 0.1811 µM in assay [4] and 10.8 µM in assay [2]. Moreover, the inhibition in assay [5] was found to be 16.6%.
As to `COc1ccccc1N1CCN(CCCCN2C(=O)N(C)C(=O)C2(c2ccccc2)c2ccccc2)CC1`, the Ki in assay [1] stood at 0.0008 µM; in assay [2], 3.57 µM; in assay [3], 0.016 µM.
As to `CC1(C)C(=O)N(Cc2ccc(Cl)cc2Cl)C(=O)N1CCCCCN1CCN(c2ccc(Cl)c(Cl)c2)CC1.Cl`, the Ki in assay [4] was determined as 0.673 µM; in assay [1], 0.301 µM; in assay [2], 0.314 µM; in assay [3], 0.078 µM. The Ratio Ki in the assay on HEK293 [6] came out at 9; in the assay on HEK293 [7], 4.
With `CC1(C)C(=O)N(Cc2ccc(Cl)cc2Cl)C(=O)N1CCCCCN1CCN(c2ccc(Cl)cc2)CC1.Cl`, the Ki in assay [4] came out at 0.7585 µM; in assay [1], 2.18 µM; in assay [2], 2.88 µM; in assay [3], 0.456 µM.
`CC1(C)C(=O)N(Cc2ccccc2)C(=O)N1CCCCCN1CCN(c2ccccc2)CC1.Cl`: the Ki in assay [4] amounted to 0.068 µM; in assay [1] it was 0.079 µM; in assay [2], 4.37 µM; in assay [3], 0.07 µM. Further, the inhibition in assay [5] is 14.3%.
`CC1(C)C(=O)N(Cc2ccccc2)C(=O)N1CCCCCN1CCN(c2ccc(F)cc2F)CC1.Cl`: the Ki came out at 0.0715 µM in assay [4], 0.235 µM in assay [1], 7.47 µM in assay [2] and 0.172 µM in assay [3].
Take `COc1ccccc1N1CCN(CCCCCN2C(=O)N(Cc3ccccc3)C(=O)C2(C)C)CC1.Cl`: the Ki in assay [4] was 0.0426 µM; in assay [1], 0.026 µM; in assay [2], 8.61 µM; in assay [3] it was 0.072 µM.
As for `CC1(C)C(=O)N(Cc2ccc(Cl)cc2Cl)C(=O)N1CCCCCN1CCN(c2cccc(Cl)c2Cl)CC1.Cl`, the Ki in assay [4] worked out at 0.9688 µM; in assay [1], 0.088 µM; in assay [2], 0.395 µM; in assay [3], 0.031 µM. The figures for the Ratio Ki with HEK293 [6] and in the assay on HEK293 [7] were 31 and 3, respectively. In assay [5], the inhibition came out at 13.8%.
As to `CC1(C)C(=O)N(Cc2ccc(F)cc2)C(=O)N1CCCCCN1CCN(c2ccc(F)cc2F)CC1.Cl`, the Ki in assay [4] came to 0.0388 µM; in assay [1], 0.299 µM; in assay [2], 8.1 µM; in assay [3], 0.123 µM.
With `CN1C(=O)N(CCCCCN2CCN(c3ccccc3)CC2)C(c2ccccc2)(c2ccccc2)C1=O.Cl`, the Ki in assay [4] came to 0.0067 µM; in assay [1], 0.0132 µM; in assay [2], 3.07 µM; in assay [3], 0.077 µM. For the same compound, the inhibition in assay [5] turned out to be 36.9%.
Turning to `CC1(C)C(=O)N(Cc2ccccc2)C(=O)N1CCCCCN1CCN(c2ccccc2F)CC1.Cl`, the Ki in assay [4] worked out at 0.071 µM; in assay [1] it was 0.076 µM; in assay [2] it was 2.51 µM; in assay [3], 0.135 µM.
On the same counts, the results for `CCOc1ccccc1N1CCN(CCCN2C(=O)N(C)C(=O)C2(c2ccccc2)c2ccccc2)CC1` are 2.6 µM, 0.0055 µM, 4.14 µM and 0.095 µM.
With `COc1ccccc1N1CCN(CCCCCN2C(=O)N(C)C(=O)C2(C)c2ccccc2)CC1.Cl` (configuration not stated), the Ki in assay [4] worked out at 0.0423 µM; in assay [1], 0.0233 µM; in assay [2], 14.6 µM; in assay [3], 0.034 µM. Moreover, the inhibition in assay [5] amounted to 19.8%.
With `CC1(C)C(=O)N(Cc2ccc(F)cc2)C(=O)N1CCCCCN1CCN(c2ccc(F)cc2)CC1.Cl`, the Ki in assay [4] turned out to be 0.0368 µM; in assay [1], 0.305 µM; in assay [2], 1.76 µM; in assay [3], 0.046 µM. The inhibition in assay [5] stood at 17.2%.
On to `COc1ccccc1N1CCN(CCCN2C(=O)N(C)C(=O)C2(c2ccccc2)c2ccccc2)CC1`, for which the Ki is 0.0065 µM in assay [1], 29.1 µM in assay [2] and 0.21 µM in assay [3].
On to `CC1(C)C(=O)N(Cc2ccccc2)C(=O)N1CCCCCN1CCN(c2ccc(F)cc2)CC1.Cl`, for which the Ki in assay [4] turned out to be 0.0684 µM; in assay [1], 0.201 µM; in assay [2], 1.94 µM; in assay [3], 0.045 µM.
